For one assay, the system named is human Kv1.3. To be noted: cited from earlier work; for IC50: human Kv1.3 channel blocking, patch-clamp, read-out: IC50, Kv1.x blocking (Kv1.3). From the text:
Table 1 Summary of chimeric protein-binding prediction studies in the light of IC50 values | column: Kv1.x blocking / IC50 (nM) || Peptide toxins of venomous animal origin as lead molecules for optimization may offer an advantage over small molecules in terms of potentially greater affinity and specificity. These miniproteins are usually up to 50 amino acids in length and can adopt distinct conformation with secondary structural elements stabilized by several disulfide bonds ([9], [10], [11]). Due to their considerable surface area, miniproteins can form stable complexes with target proteins through extensive interaction surfaces ([12], [13]). The miniprotein Kv1.3 blocker drug candidate, Dalazatide—a synthetic derivative ... || Our initial investigation focused on assessing the relative binding affinities of various channel-blocking toxins to the T-only version of the KcsA-Kv1.3 chimera. Subsequently, we evaluated whether these affinities aligned with the toxins' blocking efficacy on native human Kv1.3 channels, as determined by patch-clamp assay.
On the technique in general: Patch clamp records ionic current or voltage across a cell membrane.

For the next assay, the system named is human Kv1.2. The following applies: cited from earlier work; for IC50: human Kv1.2 channel blocking, patch-clamp, read-out: IC50, Kv1.x blocking (Kv1.2). The method, then: Elution was done at 1 ml/min flow rate. Eluted peak fractions (1 ml) were analyzed by SDS-PAGE, then pooled and concentrated. The concentration of the purified protein was determined by measuring the UV absorbance at 280 nm using the protein extinction coefficient calculator in the ProtParam tool of Ex ...

For assay [1], the target named is T1, KcsA-Kv1.2 T-only chimera (Streptomyces lividans, UniProt P0A334, R52A/G53D/A54E/P55R/G56E/A57S/L59F/I60P/T61S/Y62I/R64D).
T1 sequence (P0A334 1-160 R52A/G53D/A54E/P55R/G56E/A57S/L59F/I60P/T61S/Y62I/R64D): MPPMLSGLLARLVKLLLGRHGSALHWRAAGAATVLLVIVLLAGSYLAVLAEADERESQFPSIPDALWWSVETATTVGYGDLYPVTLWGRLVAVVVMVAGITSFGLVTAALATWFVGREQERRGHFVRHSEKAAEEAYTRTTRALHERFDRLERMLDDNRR
The experiment in a line: Phage ELISA-binding assay, KcsA-Kv1.2 T-only. Further details: species or system human Kv1.2 turret in Streptomyces lividans KcsA. The following applies: toxin displayed on M13 phage, Fig. 7C. As to the method: (§1) Phage display test solutions were prepared according to routine phage display protocols ([62]). Phosphorylated and annealed oligonucleotides encoding the peptide construct were ligated into linearized pAS62 phagemid vector (https://patents.google.com/patent/WO2022144560A1/en) at a vector/insert ratio of 1:3. The final phagemid construct harbored a signal sequence followed by the peptide of interest, a linker sequence ([…]), and the C-terminal part of the P3 coat protein (amino acids: 216-424 of NP_510891.1). Chemically competent XL1-Blue E. coli cells (2022249, Agilent) were transformed with the ligation product and then streaked onto ampicillin (100 μg/ml) containing LB/Amp plates and incubated for 16 h at 37 °C. A few clones were sequenced, and a single colony with confirmed target sequence was inoculated into 3 ml 2 YT medium supplemented with 100 μg/ml ampicillin and incubated at 37 °C until the culture reached midlog phase. The culture was infected with M13KO7 helper phage (N0315S, New England Biolabs) (phage/cell ratio 10:1) and was incubated for 30 min at 37 °C. The 3 ml culture was transferred into 200 ml 2YT medium, supplemented with 100 μg/ml ampicillin and 25 μg/ml kanamycin, and incubated overnight at 37 °C. The overnight cell culture (200 ml) was pelleted by centrifugation at 8000g for 10 min in 400 ml centrifuge tubes at 4 °C. […] The particle concentrations of phage solutions were determined using a NanoDrop One C (Thermo Fisher Scientific) spectrophotometer. The phage particle concentration was assessed according to the formula: (A268–A320) × 5 × 10^12 particles/ml ([62]). […]
(§2) Phage stock solutions were diluted to working concentration with phage resuspension buffer supplemented with 2 mM DDM. […] Following blocking, the wells were washed 4× with washing buffer (300 μl TBS-Tween, 0.1% v/v) using a Wellwash Versa microplate washer (Thermo Fisher Scientific); then 50 μl phage solution (in TBS-BSA-Tween, 0.1% v/v, 2 mM DDM) at determined phage concentration was added to the wells and incubated for 1 h at room temperature on a horizontal shaker. […]
In general terms: In an ELISA, binding on a coated surface is turned into a signal by an enzyme label.

The next assay concerns the target T2, KcsA-Kv1.1 T+F chimera (Streptomyces lividans, UniProt P0A334, R52A/G53E/A54E/P55A/G56E/A57S/Q58H/L59F/I60S/T61S/Y62I/R64D/L81M).
T2 sequence (P0A334 1-160 R52A/G53E/A54E/P55A/G56E/A57S/Q58H/L59F/I60S/T61S/Y62I/R64D/L81M): T1 sequence (P0A334 1-160 R52A/G53D/A54E/P55R/G56E/A57S/L59F/I60P/T61S/Y62I/R64D) with D53E, R55A, Q58H, P60S, L81M
Nature of the assay: Phage ELISA-binding assay, KcsA-Kv1.1 T+F. Details: species or system human Kv1.1 turret and filter in Streptomyces lividans KcsA. To be noted: toxin displayed on M13 phage; Fig. 8D. The method, then: as §1, §2

The values that follow come from article PMC11002876, “KcsA-Kv1.x chimeras with complete ligand-binding sites provide improved predictivity for screening selective Kv1.x blockers” (The Journal of Biological Chemistry, 2024).

Changes are numbered by the printed parent chain. Where a SMILES comes first, the peptide text is derived from it.

In the case of `CC[C@H](C)[C@@H]1NC(=O)CNC(=O)[C@H](Cc2ccccc2)NC(=O)[C@H](CCC(N)=O)NC(=O)[C@H](C)NC(=O)[C@H](CCCCN)NC(=O)[C@@H]2CSSC[C@@H](C(=O)N[C@@H](Cc3ccc(O)cc3)C(=O)N3CCC[C@H]3C(=O)N[C@@H](Cc3c[nH]cn3)C(=O)O)NC(=O)[C@H](CCCCN)NC(=O)[C@@H]3CSSC[C@H](NC(=O)[C@H](CCC(N)=O)NC(=O)[C@H](CCCCN)NC(=O)[C@@H]4CCCN4C(=O)[C@H](CO)NC(=O)[C@H]([C@@H](C)O)NC(=O)[C@@H](NC(=O)[C@H](CCCCN)NC(=O)[C@@H](NC(=O)[C@H](CC(=O)O)NC(=O)[C@@H](NC(=O)[C@@H](NC(=O)[C@@H](N)[C@@H](C)O)C(C)C)[C@@H](C)CC)C(C)C)CSSC[C@H](NC(=O)[C@H](CCCCN)NC(=O)[C@H](C)NC(=O)CNC(=O)[C@H](C)NC(=O)[C@H](CCCNC(=N)N)NC1=O)C(=O)N[C@@H](CCSC)C(=O)N[C@@H](CC(N)=O)C(=O)NCC(=O)N[C@@H](CCCCN)C(=O)N3)C(=O)N[C@@H](CC(C)C)C(=O)N1CCC[C@H]1C(=O)N1CCC[C@H]1C(=O)N2` [HgTx1, Hongotoxin-1] (HELM PEPTIDE1{T.V.I.D.V.K.C.T.S.P.K.Q.C.L.P.P.C.K.A.Q.F.G.I.R.A.G.A.K.C.M.N.G.K.C.K.C.Y.P.H}$PEPTIDE1,PEPTIDE1,7:R3-29:R3|PEPTIDE1,PEPTIDE1,13:R3-34:R3|PEPTIDE1,PEPTIDE1,17:R3-36:R3$$$V2.0; N-terminus and C-terminus assumed), in the assay with human Kv1.3, the “inhibition of Kv1.3, in words” value is given as “equivalent high potency” and the half-maximal inhibitory concentration (IC50) was 0.086 nM. Also, in the assay with human Kv1.2, the “inhibition of Kv1.2, in words” value was “equivalent high potency”.

Regarding `CC[C@H](C)[C@@H]1NC(=O)[C@@H]2CSSC[C@H](NC(=O)[C@H](CO)NC(=O)[C@@H](N)C(C)C)C(=O)N[C@@H]([C@@H](C)O)C(=O)NCC(=O)N[C@@H](CO)C(=O)N[C@@H](CCCCN)C(=O)N[C@@H](CC(=O)O)C(=O)N[C@@H](CSSC[C@@H](C(=O)N[C@@H](CCCCN)C(=O)N[C@H]3CSSC[C@@H](C(N)=O)NC(=O)CNC(=O)[C@H](Cc4ccc(O)cc4)NC3=O)NC(=O)[C@H](CO)NC(=O)[C@H](CCCCN)NC(=O)[C@H](CC(N)=O)NC1=O)C(=O)N[C@@H](Cc1ccc(O)cc1)C(=O)N[C@@H](C)C(=O)N1CCC[C@H]1C(=O)N[C@H]1CSSC[C@H](NC(=O)CNC(=O)[C@H]([C@@H](C)O)NC(=O)[C@H](CCC(N)=O)NC(=O)[C@H](CCCCN)NC(=O)[C@H](CCCNC(=N)N)NC1=O)C(=O)N1CCC[C@H]1C(=O)N[C@@H](CC(N)=O)C(=O)N[C@@H](C)C(=O)N[C@@H](CCCCN)C(=O)N2` [MTX, Maurotoxin] (HELM PEPTIDE1{V.S.C.T.G.S.K.D.C.Y.A.P.C.R.K.Q.T.G.C.P.N.A.K.C.I.N.K.S.C.K.C.Y.G.C.[am]}$PEPTIDE1,PEPTIDE1,3:R3-24:R3|PEPTIDE1,PEPTIDE1,9:R3-29:R3|PEPTIDE1,PEPTIDE1,13:R3-19:R3|PEPTIDE1,PEPTIDE1,31:R3-34:R3$$$V2.0; N-terminus and C-terminus assumed), in assay [1], the “phage binding to KcsA-Kv1.2 T-only, in words” value is on record as “negligible binding”. The “phage binding to KcsA-Kv1.1 T+F, in words” value on KcsA-Kv1.1 T+F chimera is “negligible binding”. Also, in the assay with human Kv1.2, the “block of native Kv1.2, in words” value is on record as “potent blocker” and the IC50 is 0.8 nM.

Turning to `CC[C@H](C)[C@@H]1NC(=O)[C@@H](NC(=O)[C@H](CO)NC(=O)[C@@H](N)CCCNC(=N)N)CSSC[C@@H](C(=O)O)NC(=O)[C@H]([C@@H](C)O)NC(=O)CNC(=O)[C@@H]2CSSC[C@@H]3NC(=O)[C@H](CCC(N)=O)NC(=O)[C@H](Cc4ccccc4)NC(=O)[C@H](C)NC(=O)[C@H]([C@@H](C)O)NC(=O)[C@H](CSSC[C@H](NC(=O)[C@H](Cc4ccccc4)NC(=O)[C@H](CO)NC(=O)[C@H](CC(C)C)NC(=O)[C@H](CCCNC(=N)N)NC(=O)[C@H](Cc4ccc(O)cc4)NC(=O)[C@H](CCCCN)NC(=O)[C@H](CCSC)NC(=O)[C@H](CO)NC(=O)[C@H](Cc4c[nH]cn4)NC(=O)[C@H](CCCCN)NC3=O)C(=O)N[C@@H](CCCNC(=N)N)C(=O)N[C@@H](CCCCN)C(=O)N[C@@H]([C@@H](C)O)C(=O)N2)NC(=O)[C@H](CCCNC(=N)N)NC(=O)[C@H](CO)NC(=O)[C@H](CCCCN)NC(=O)[C@@H]2CCCN2C(=O)[C@H]([C@@H](C)CC)NC(=O)[C@H]([C@@H](C)O)NC(=O)[C@H](CC(=O)O)NC1=O` [ShK, Stichodactyla toxin], the “phage binding to KcsA-Kv1.2 T-only, in words” value in assay [1] is “inconsistent with their published channel blocking potencies”. For the same molecule, the “phage binding to KcsA-Kv1.1 T+F, in words” value at KcsA-Kv1.1 T+F chimera is on record as “ShK > KTX1”. For the same molecule, in the assay with human Kv1.2, the IC50 was 9 nM.

Turning to `CC[C@H](C)[C@H](NC(=O)[C@H](C)NC(=O)[C@H](C)NC(=O)[C@H](C)N)C(=O)N[C@@H](CO)C(=O)N[C@H]1CSSC[C@@H]2NC(=O)[C@H](CCCCN)NC(=O)CNC(=O)[C@H](CC(N)=O)NC(=O)[C@H](CCCCN)NC(=O)[C@@H]3CSSC[C@@H](C(N)=O)NC(=O)[C@H](Cc4ccc(O)cc4)NC(=O)[C@H](Cc4ccc(O)cc4)NC(=O)[C@@H]4CSSC[C@H](NC(=O)[C@H](CCCCN)NC(=O)[C@@H]5CCCN5C(=O)[C@@H]5CCCN5C(=O)[C@H](CSSC[C@H](NC(=O)[C@H](CCCCN)NC(=O)[C@H](CCCNC(=N)N)NC(=O)[C@H](CC(N)=O)NC(=O)[C@H](CCSC)NC2=O)C(=O)N[C@@H](CCCCN)C(=O)N4)NC(=O)[C@H](CCC(=O)O)NC(=O)[C@@H]2CCCN2C(=O)[C@H](CO)NC(=O)CNC(=O)[C@H](C(C)C)NC1=O)C(=O)N[C@@H](CCCNC(=N)N)C(=O)N[C@@H](C)C(=O)N[C@@H](CCC(N)=O)C(=O)NCC(=O)N3` [Vm24, Vm24 toxin], in the assay with human Kv1.3, the IC50 was 0.003 nM.

A word on the IC50: it is the concentration needed to halve the response being measured.
